Here are results for one compound from patent US20220071993A1, “A VILAZODONE SOLID DISPERSION AND PREPARATION METHOD THEREOF” (SUNSHINE LAKE PHARMA CO., LTD., priority 2018, published 2022).

Structures can show the parent of a compound that is named as a salt. Where two headings read alike, the source gives them in different places.

For data set [1] the following is noted: cited from earlier work.
Data set [2] can be described thus: Dissolution of vilazodone hydrochloride in acetone aqueous solution. The class given is physicochemical. To be noted: 10 mg. As to the method: 10 mg of vilazodone hydrochloride solid powder was put into a 4 ml EP tube. 1 ml of acetone aqueous solution of different concentrations was added to each tube separately, and the tubes were sonicated in a water bath for 30 minutes. The dissolution of the powder was observed; if the powder was dissolved quickly, a small amount of powder was continued to add to increase the concentration of the sample and was dissolved ultrasonically; finally, the solution samples were placed at room temperature for 24 hours to observe whether there was precipitation.

A short description of data set [3]: Dissolution of vilazodone hydrochloride in methanol aqueous solution. Format: physicochemical. To be noted: 30 mg. As to the method: 30 mg of vilazodone hydrochloride solid powder was put into a 10 ml EP tube 3 ml of methanol aqueous solution of different concentrations was added to each tube separately, and the tubes were sonicated in a water bath for 30 minutes. The dissolution of the powders was observed; if the powder was dissolved quickly, a small amount of powder was continued to add to increase the concentration of the sample and was dissolved ultrasonically; finally, the solution samples were placed at room temperature for 24 hours to observe whether there was precipitation.

Data set [4] is described as follows: Dissolution of vilazodone in different organic solvents. To be noted: 10 mg/ml, sonicated 30 min, room temperature 24 h. Format: physicochemical. The procedure:
10 mg of vilazodone hydrochloride solid powder was put into a 4 ml EP tube. 1 ml of dichloromethane, methanol, ethanol, acetone and ethyl acetate was added to each tube separately, and the tubes were sonicated in a water bath for 30 minutes. The dissolution of the powder was observed; after the samples were placed at room temperature for 24 h, the appearance of the samples was observed and whether there was precipitation was noted.

Data set [5] can be described thus: Dissolution of vilazodone hydrochloride in ethanol aqueous solution. To be noted: 10 mg. The class given is physicochemical. As to the method: 10 mg of vilazodone hydrochloride solid powder was put into a 4 ml EP tube. 1 ml of ethanol aqueous solution of different concentrations was added to each tube separately, and the tubes were sonicated in a water bath for 30 minutes. The dissolution of the powder was observed; after the samples were placed at room temperature for 24 h, the appearance of the samples was observed and whether there was precipitation was noted.

On to `N#Cc1ccc2[nH]cc(CCCCN3CCN(c4ccc5oc(C(N)=O)cc5c4)CC3)c2c1` [vilazodone hydrochloride, 5-{4-[4-(5-cyano-3-indole)-butyl]-1-piperazinyl}-coumarone-2-carboxamide], for which the solubility entry in data set [1] (environment with pH 3.1) is on record as “a certain solubility”; in data set [1] (gastric juice (pH 1.2) and intestinal juice (pH 4.5 to 6.8)), “poor solubility”. For the same compound, the “Phenomenon (dissolution)” value in data set [2] (Acetone 0.1 ml + Water 0.9 ml) is “Insoluble, a lot of precipitation”; in data set [2] (Acetone 0.2 ml + Water 0.8 ml) it was “Insoluble, a lot of precipitation”; in data set [2] (Acetone 0.3 ml + Water 0.7 ml) it was “Insoluble, a lot of precipitation”; in data set [2] (Acetone 0.9 ml + Water 0.1 ml) it was “Insoluble, a lot of precipitation”; in data set [4] (Acetone), “Insoluble, a little of precipitation”; in data set [4] (Dichloromethane), “Insoluble, a lot of precipitation”. In addition, the “Phenomenon (dissolution)” value in data set [4] (Ethanol) was “Insoluble, a little of precipitation”; in data set [4] (Ethyl acetate) it was “Insoluble, a lot of precipitation”; in data set [4] (Methanol), “Insoluble, a little of precipitation”; in data set [5] (Ethanol 0.1 ml + Water 0.9 ml), “Insoluble, a lot of precipitation”; in data set [5] (Ethanol 0.2 ml + Water 0.8 ml), “Insoluble, a lot of precipitation”; in data set [5] (Ethanol 0.3 ml + Water 0.7 ml) it was “Insoluble, a lot of precipitation”. Besides, the “Phenomenon (dissolution)” value is on record as “Dissolved, precipitate after 1 day” in data set [5] (Ethanol 0.4 ml + Water 0.6 ml); “Dissolved, precipitate after 1 day” in data set [5] (Ethanol 0.6 ml + Water 0.4 ml); “Insoluble, a lot of precipitation” in data set [5] (Ethanol 0.8 ml + Water 0.2 ml); “Insoluble, a lot of precipitation” in data set [5] (Ethanol 0.9 ml + Water 0.1 ml). The “Result (dissolution)” value in data set [3] (Methanol 0.3 ml + Water 2.7 ml) was “Insoluble, a lot of precipitation”; in data set [3] (Methanol 0.6 ml + Water 2.4 ml), “Insoluble, a lot of precipitation”; in data set [3] (Methanol 0.9 ml + Water 2.1 ml) it was “Insoluble, a lot of precipitation”; in data set [3] (Methanol 1.2 ml + Water 1.8 ml), “Insoluble, a lot of precipitation”.
